{"source": "patent US4268630A", "about": "“Microbiological production of ketones from C3 -C6 alkanes” (priority 1979, dated 1981)", "test_system": "Methylomonas albus BG8 (NRRL B-11,200)", "experiment": "Oxidation of sec-alcohols to ketones by resting cell suspension", "assay_type": "cell-based", "protocol": "The pH of the nutrient medium was adjusted to 7.0 by the addition of acid or base and 50 ml. samples of the nutrient medium were charged into a plurality of 300 ml. shaker flasks. The shaker flasks were inoculated with an inoculating loop of cells from an agar plate containing homogeneous colonies of the microorganisms on the plate (the purity of the isolates was confirmed by microscopic examination). The isolates had been maintained on methanol (0.4% V/V) agar plates or on agar plates under an atmosphere of methane and air having a 1:1 V/V gas ratio which had been transferred every two weeks. For growth on methanol, the medium was supplemented with 0.4% methanol. For growth on methane, the gaseous phase of the inoculated flasks was replaced with a gas mixture comprised on methane and air having a ratio of 1:1 on a V/V basis. The inoculated flasks were sealed air-tight and were incubated on a rotary shaker of orbital radius 2.5 cm. at 250 rpm and at 30° C. for two days until turbidity in the medium had developed. The cells were harvested by centrifugation at 10,000×g. at 4° C. for 30 minutes. The cell pellet was washed twice with a 0.05 M phosphate buffer at a pH of 7.0 (containing 0.02 M MgCl2). The washed cells were then suspended in a 0.05 M phosphate buffer at pH 7.0.\nA 0.5 ml. sample of each washed cell suspension (2 mg. cells) was put into 10 ml. vials at 4° C. which were sealed with a rubber cap. The gaseous phase of the vials was removed with vacuum and then was replaced with a gas mixture of the substrate reactant (i.e., alkane or secondary alcohol) and oxygen at a 1:1 V/V ratio. (In the case of a liquid substrate, i.e., secondary alcohol, 10 μl of the substrate was put in the 10 ml. vials). […] Samples of product (1-3 μl) were withdrawn periodically with a microsyringe and the products were analyzed by gas chromatography (ionization flame detector column).\nThe procedure in Example 1 was repeated wherein a plurality of the methane-utilizing methylotrophic microorganisms were each grown aerobically in a nutrient medium containing methane as the alcohol dehydrogenase enzyme inducer and as the major carbon and energy source for growth. The cells were harvested and washed as described in Example 1. The resting microbial cells of the induced methane-grown methane-utilizing methylotrophic microorganisms were then contacted with C3 -C6 secondary alcohols in a buffered solution by the procedure of Example 1.\nIn this example, the procedure in Example 1 was repeated except that a plurality of methane-utilizing methylotrophic microorganisms were each aerobically grown in a methanol-containing nutrient medium instead of a methane-containing medium. The nutrients in the medium were the same as indicated in Example 1 except that 0.4% V/V methanol was used as the alcohol dehydrogenase inducer and major source of carbon and energy for growth. Following growth, the cells were harvested and washed as described in Example 1. The resting cells of the induced methanol-grown methylotrophic microorganisms were then contacted with secondary alcohols in a buffered solution by the procedure described in Example 1."}
{"molecule": "CC(C)O", "note": "[2-Propanol, 2-propanol]", "values": [{"measurement": "Conversion Rates, sec-alcohol to methyl ketone", "setting": "cells grown on methanol", "result": 1.5, "unit": "μmoles/hr/mg protein"}, {"measurement": "Conversion Rates, sec-alcohol to methyl ketone", "setting": "resting cells grown on methane", "result": 1.3, "unit": "μmoles/hr/mg protein"}]}
{"molecule": "CCC(C)O", "note": "(stereo not shown) [2-Butanol, 2-butanol]", "values": [{"measurement": "Conversion Rates, sec-alcohol to methyl ketone", "setting": "cells grown on methanol", "result": 3.0, "unit": "μmoles/hr/mg protein"}, {"measurement": "Conversion Rates, sec-alcohol to methyl ketone", "setting": "resting cells grown on methane", "result": 3.5, "unit": "μmoles/hr/mg protein"}]}
